# Where “and” joins values, the source holds several entries; their conditions need not be identical. Equal values may be shown once.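 96-well plates; 48 h exposure; 5 concentrations. Endpoints by linear interpolation between flanking doses. Not reached: highest tested concentration assigned. Here, GI50 denotes the concentration required for 50% inhibition of growth. At the TGI there is no net growth.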
# Legend:
# Assay in all cases: growth of human tumour cells (NCI), 48 h
# KM12 colon = test system: KM12 colon
# SR leukemia = test system: SR leukemia
# SW-620 colon = test system: SW-620 colon
# HT29 colon = test system: HT29 colon
# M14 melanoma = test system: M14 melanoma
# OVCAR-8 ovarian = test system: OVCAR-8 ovarian
# OVCAR-4 ovarian = test system: OVCAR-4 ovarian
# NCI-H226 lung = test system: NCI-H226 lung
# HCC-2998 colon = test system: HCC-2998 colon
# MDA-MB-231 breast = test system: MDA-MB-231 breast
Structure (SMILES),TGI (KM12 colon),TGI (SR leukemia),TGI (SW-620 colon),TGI (HT29 colon),TGI (M14 melanoma),TGI (OVCAR-8 ovarian),TGI (OVCAR-4 ovarian),TGI (NCI-H226 lung),TGI (HCC-2998 colon),GI50 (KM12 colon),GI50 (SR leukemia),GI50 (SW-620 colon),GI50 (HT29 colon),GI50 (MDA-MB-231 breast),TGI (MDA-MB-231 breast),GI50 (M14 melanoma),GI50 (OVCAR-8 ovarian),GI50 (NCI-H226 lung),GI50 (HCC-2998 colon),GI50 (OVCAR-4 ovarian)
Cc1ccc(S(=O)(=O)ON=C2CC(c3ccccc3)N(C)C(c3ccccc3)C2)cc1 (stereo not given),34.1 µM,62.5 µM and 57.3 µM,38.8 µM and 31.2 µM,54.7 µM and 57.3 µM,34.9 µM and 43.8 µM,35.6 µM and 36.5 µM,38.4 µM and 40.3 µM,70.1 µM and 64 µM,32.3 µM,,,,,,,,,,,
Cc1cc(Br)cc(C)c1NC(=O)C(=O)C(C(=O)c1ccc(Cl)c(Cl)c1)C1OC(=O)c2ccccc21 (stereo not given),> 100 µM,> 100 µM,> 100 µM,> 100 µM,> 100 µM,> 100 µM,> 100 µM,> 100 µM,> 100 µM,,,,,,,,,,,
ClCc1ccc(Cn2cnc3ncnc(Cl)c32)cc1,3.48 µM,2.7 µM,7.18 µM,3.59 µM,13 µM,11 µM,,12 µM,2.87 µM,1.66 µM,0.822 µM,2.58 µM,1.22 µM,1.76 µM,3.35 µM,2.73 µM,3.14 µM,2.99 µM,1.42 µM,
CC(C)S(=O)(=O)n1c(N)nc2ccc(/C(=N/O)c3ccccc3)cc21,45.8 µM,27.2 µM,45.3 µM,36.8 µM,65.9 µM,> 100 µM,> 100 µM,23.4 µM,53.2 µM,,,,,,,,,,,
Cc1cc(C(=O)NCCN(C)C)c2nc3ccccc3nc2c1,23.8 µM,> 100 µM,> 37.4 µM,19.1 µM,> 33.5 µM,> 76.6 µM,19.5 µM,14.3 µM,35.2 µM,,,,,,,,,,,
COc1cc([N+](=O)[O-])c2ncccc2c1O,7.02 µM,> 100 µM,> 100 µM,22.9 µM,3.02 µM,> 100 µM,> 100 µM,6.27 µM,,2.18 µM,20.6 µM,4.07 µM,2.26 µM,26.1 µM,> 100 µM,1.45 µM,8.71 µM,2.01 µM,,26.6 µM
COC(=N)/C(=C1\OC(N)=C(c2ccc(Cl)cc2)C1=O)c1ccc(Cl)cc1,> 100 µM,> 100 µM,> 100 µM,> 100 µM,> 100 µM,> 100 µM,> 100 µM,> 100 µM,> 100 µM,,,,,,,,,,,
CC1=CC(=O)c2[nH]c3ccccc3c2C1=O,9.01 µM,16.7 µM,7.65 µM,> 25 µM,7.62 µM,7.45 µM,7.58 µM,22.7 µM,24 µM,4.4 µM,5.71 µM,3.94 µM,17.6 µM,,,4.21 µM,,6.54 µM,7.01 µM,
C=C1C(=O)O[C@H]2[C@H](OC(C)=O)[C@@H](C)CCC/C(C)=C/CC[C@]3(CO3)[C@H](O)C[C@@H]12,8.96 µM,3.94 µM,10.7 µM,11.5 µM,,10.8 µM,21.9 µM,38.6 µM,28.4 µM,2.33 µM,1.32 µM,3.24 µM,3.23 µM,5.25 µM,17.2 µM,,3.06 µM,16.3 µM,15.2 µM,6.89 µM

# From PubChem BioAssay (NCI)
